# Read-outs that look alike come from different tables or passages of the source. Non-standard residues stand in square brackets, D forms with d. Residues, ends and D or L forms follow the SMILES beside them. No end group written: not given here. Orn = NCCC[C@H](N)C(=O)O
# Legend:
# [1] = tested on: Fusarium solani; test: Microdilution broth assay; format: cell-based; parameters: MIC against F. solani in PDB (n): unit not given beside the values; settings: for MIC against F. solani in PDB (n): potato dextrose broth (low salt PDB)
# Description: (§1) Microdilution broth and agar assays were used to assess the antifungal activity of the cyclic decapeptides in liquid media and on solid (gel) media, respectively.
# (§2) The antibacterial activity of the tyrocidines and gramicidin S against all the bacteria tested was determined by the methods described by Du Toit E A and Rautenbach M (2000) J. Microbiol. Methods, 42, 159-165. The antifungal activity of the tyrocidines against all the […] tested was determined by the methods described by Troskie A M, Vlok N M and Rautenbach M (2012) J. Microbiol. Methods, 91, 551-558.
# [2] = tested on: Botrytis cinerea; test: Microdilution broth assay; format: cell-based; parameters: MIC + SEM / MIC against B. cinerea in PDB (n): unit not given beside the values
# Description: as §1, §2
# [3] = tested on: Cylindrocarpon and Campylocarpon spp; settings: 13 fungicides evaluated; Halleen et al. 2007; cited from earlier work
# [4] = tested on: black foot disease; settings: field conditions; Halleen et al. 2007; cited from earlier work
# [5] = potato dextrose broth (low salt PDB)
Molecule,MIC against F. solani in PDB (n) [1],"MIC against B. cinerea in PDB (n) [2, 5]",further results
"CC(C)C[C@@H]1NC(=O)[C@H](CCCN)NC(=O)[C@H](C(C)C)NC(=O)[C@H](Cc2ccc(O)cc2)NC(=O)[C@H](CCC(N)=O)NC(=O)[C@H](CC(N)=O)NC(=O)[C@@H](Cc2ccccc2)NC(=O)[C@H](Cc2ccccc2)NC(=O)C2CCCN2C(=O)[C@@H](Cc2ccccc2)NC1=O (some centres unmarked) [TrcA, Cyclo-(VOLfPFfNQY)] (HELM PEPTIDE1{F.[dF].N.Q.Y.V.[Orn].L.[dF].[O=C(C1CCCN1[*:1])[*:2]]}$PEPTIDE1,PEPTIDE1,1:R1-10:R2$$$V2.0)",4.0 ± 0.4 (3),–,MIC against B. cinerea in PDB (n) [2]: 5.2 ± 0.6 (6)
CCCCNC(=O)n1c(NC(=O)OC)nc2ccccc21 [benomyl],–,–,in vitro mycelial inhibition [3]: able to effectively reduce mycelial growth in all fungal strains tested; protection of propagation material against black foot disease [4]: failed to protect propagation against black foot disease under field conditions
C=CCOC(Cn1ccnc1)c1ccc(Cl)cc1Cl (centres unmarked) [imazalil],–,–,in vitro mycelial inhibition [3]: able to effectively reduce mycelial growth in all fungal strains tested; protection of propagation material against black foot disease [4]: failed to protect propagation against black foot disease under field conditions
CCCN(CCOc1c(Cl)cc(Cl)cc1Cl)C(=O)n1ccnc1.CCCN(CCOc1c(Cl)cc(Cl)cc1Cl)C(=O)n1ccnc1.CCCN(CCOc1c(Cl)cc(Cl)cc1Cl)C(=O)n1ccnc1.CCCN(CCOc1c(Cl)cc(Cl)cc1Cl)C(=O)n1ccnc1.[Cl][Mn][Cl] [prochloraz manganese chloride],–,–,in vitro mycelial inhibition [3]: able to effectively reduce mycelial growth in all fungal strains tested; protection of propagation material against black foot disease [4]: failed to protect propagation against black foot disease under field conditions
"Cyclo-(VKLfP(W,f)NQY) (VKLFPWFNQY; HELM PEPTIDE1{V.K.L.[dF].P.W.[dF].N.Q.Y}$PEPTIDE1,PEPTIDE1,1:R1-10:R2$$$V2.0; SMILES CC(C)C[C@@H]1NC(=O)[C@H](CCCCN)NC(=O)[C@H](C(C)C)NC(=O)[C@H](Cc2ccc(O)cc2)NC(=O)[C@H](CCC(N)=O)NC(=O)[C@H](CC(N)=O)NC(=O)[C@@H](Cc2ccccc2)NC(=O)[C@H](Cc2c[nH]c3ccccc23)NC(=O)[C@@H]2CCCN2C(=O)[C@@H](Cc2ccccc2)NC1=O) [TrcB1/B1′]",5.9 ± 0.6 (3),3.6 ± 0.1 (6),–
Cyclo-(VKLfPFfNQY) (chain 1 VKL[dF]PF[dF]NQY; chain 2 VKL[dF]PF[dF]NQY; also: head-to-tail to a chain's N/C-terminus; listed as Bacillus aneurinolyticus) [TrcA1],7.9 ± 0.7 (3),4.1 ± 0.7 (6),–
Cyclo-(VKLfPWwNQY) (chain 1 VKL[dF]PW[dW]NQY; chain 2 VKL[dF]PW[dW]NQY; also: head-to-tail to a chain's N/C-terminus; listed as Bacillus aneurinolyticus) [TrcC1],32 ± 2.8 (3),8.9 ± 1.5 (3),–
"Cyclo-(VOLfP(W,f)NQY) (VXLFPWFNQY; HELM PEPTIDE1{V.[Orn].L.[dF].P.W.[dF].N.Q.Y}$PEPTIDE1,PEPTIDE1,1:R1-10:R2$$$V2.0; SMILES CC(C)C[C@@H]1NC(=O)[C@H](CCCN)NC(=O)[C@H](C(C)C)NC(=O)[C@H](Cc2ccc(O)cc2)NC(=O)[C@H](CCC(N)=O)NC(=O)[C@H](CC(N)=O)NC(=O)[C@@H](Cc2ccccc2)NC(=O)[C@H](Cc2c[nH]c3ccccc23)NC(=O)[C@@H]2CCCN2C(=O)[C@@H](Cc2ccccc2)NC1=O) [TrcB/B′]",11 ± 4.0 (3),5.1 ± 1.0 (6),–
Cyclo-(VOLfPFfNQF) (chain 1 V[Orn]L[dF]PF[dF]NQF; chain 2 V[Orn]L[dF]PF[dF]NQF; also: head-to-tail to a chain's N/C-terminus; listed as Bacillus aneurinolyticus) [PhcA],7.2 ± 1.0 (3),6.9 ± 1.4 (5),"loss of activity from PDB to YTSB ([1]; F. solani, PDB (low salt) vs YTSB (high salt)): ~5 fold; loss of activity from PDB to YTSB ([2]; B. cinerea, PDB (low salt) vs YTSB (high salt)): ~2 fold"
Cyclo-(VOLfPWwNQW) (chain 1 V[Orn]L[dF]PW[dW]NQW; chain 2 V[Orn]L[dF]PW[dW]NQW; also: head-to-tail to a chain's N/C-terminus; listed as Bacillus aneurinolyticus) [TpcC],4.6 ± 0.9 (3),3.6 ± 0.2 (6),"decrease in activity from YTSB to PDB ([1]; F. solani, YTSB (high salt) vs PDB (low salt)): approximately twofold; decrease in activity from PDB to YTSB ([2]; B. cinerea, YTSB (high salt) vs PDB (low salt)): approximately twofold"
Cyclo-(VOLfPWwNQY) (chain 1 V[Orn]L[dF]PW[dW]NQY; chain 2 V[Orn]L[dF]PW[dW]NQY; also: head-to-tail to a chain's N/C-terminus; listed as Bacillus aneurinolyticus) [TrcC],4.3 ± 0.4 (3),3.5 ± 0.2 (6),–
